Tests used:
[1] = test system: ATCC 700671 PRSP (S. pneumoniae); experiment: In vivo protection effects of Ph-SP; parameters: species or system mice; conditions: 5 animals
Procedure: To assess the in vivo effect of Ph-SP, mice were injected with ATCC 700671 PRSP intraperitoneally, followed by intravenous injections of PH-SP or controls.
One hour after administration of the fatal dose of ATCC 700671 PRSP (10^5 CFU/ml), each mouse was injected through the tail vein with test agents at three dosages as described in Table 4.

[2] = test system: S. aureus strain ATCC BAA-42 MRSA; conditions: all agents 5 μg/ml

cephalomycin
Death distribution in hours 24 h ([1]; 5 mg/kg tail vein): 3
Death distribution in hours 48 h ([1]; 5 mg/kg tail vein): 1
Death distribution in hours 72 h ([1]; 5 mg/kg tail vein): 0
Death distribution in hours 96 h ([1]; 5 mg/kg tail vein): 0
Death distribution in hours 120 h ([1]; 5 mg/kg tail vein): 0
Death distribution in hours 144 h ([1]; 5 mg/kg tail vein): 0
Death distribution in hours 168 h ([1]; 5 mg/kg tail vein): 0
Number of Death ([1]; 5 mg/kg tail vein): 4
Death distribution in hours 24 h ([1]; 10 mg/kg tail vein): 2
Death distribution in hours 48 h ([1]; 10 mg/kg tail vein): 1
Death distribution in hours 72 h ([1]; 10 mg/kg tail vein): 0
Death distribution in hours 96 h ([1]; 10 mg/kg tail vein): 0
Death distribution in hours 120 h ([1]; 10 mg/kg tail vein): 0
Death distribution in hours 144 h ([1]; 10 mg/kg tail vein): 0
Death distribution in hours 168 h ([1]; 10 mg/kg tail vein): 0
Number of Death ([1]; 10 mg/kg tail vein): 3

B1: Ph-SA4: Colicin Ia linked to the AgrDIV pheromone of S. aureus (protein)
chain: SDPVRITNPGAESLGYDSDGHEIMAVDIYVNPPRVDVFHGTPPAWSSFGNKTIWGGNEWVDDSPTRSDIEKRDKEITAYKNTLSAQQKENENKRTEAGKRLSAAIAAREKDENTLKTLRAGNADAADITRQEFRLLQAELREYGFRTEIAGYDALRLHTESRMLFADADSLRISPREARSLIEQAEKRQKDAQNADKKAADMLAEYERRKGILDTRLSELEKNGGAALAVLDAQQARLLGQQTRNDRAISEARNKLSSVTESLNTARNALTRAEQQLTQQKNTPDGKTIVSPEKFPGRSSTNHSIVVSGDPRFAGTIKITTSAVIDNRANLNYLLSHSGLDYKRNILNDRNPVVTEDVEGDKKIYNAEVAEWDKLRQRLLDARNKITSAESAVNSARNNLSARTNEQKHANDALNALLKEKENIRNQLSGINQKIAEEKRKQDELKATKDAINFTTEFLKSVSEKYGAKAEQLAREMAGQAKGKKIRNVEEALKTYEKYRADINKKINAKDRAAIAAALESVKLSDISSNLNRFSRGLGYAGKFTSLADWITEFGKAVRTENWRPLFVKTETIIAGNAATALVALVFSILTGSALGIIGYGLLMAVTGALIDESLVEKANKFWGIYSTCYFIM
modifications: Colicin attached to Pheromone peptide encoding Staphylococcus aureus AgrDIV
inhibition of growth [2]: best inhibitory effects

B2: Ph-SA3: Colicin Ia linked to the AgrDIII pheromone of S. aureus (protein)
chain: SDPVRITNPGAESLGYDSDGHEIMAVDIYVNPPRVDVFHGTPPAWSSFGNKTIWGGNEWVDDSPTRSDIEKRDKEITAYKNTLSAQQKENENKRTEAGKRLSAAIAAREKDENTLKTLRAGNADAADITRQEFRLLQAELREYGFRTEIAGYDALRLHTESRMLFADADSLRISPREARSLIEQAEKRQKDAQNADKKAADMLAEYERRKGILDTRLSELEKNGGAALAVLDAQQARLLGQQTRNDRAISEARNKLSSVTESLNTARNALTRAEQQLTQQKNTPDGKTIVSPEKFPGRSSTNHSIVVSGDPRFAGTIKITTSAVIDNRANLNYLLSHSGLDYKRNILNDRNPVVTEDVEGDKKIYNAEVAEWDKLRQRLLDARNKITSAESAVNSARNNLSARTNEQKHANDALNALLKEKENIRNQLSGINQKIAEEKRKQDELKATKDAINFTTEFLKSVSEKYGAKAEQLAREMAGQAKGKKIRNVEEALKTYEKYRADINKKINAKDRAAIAAALESVKLSDISSNLNRFSRGLGYAGKFTSLADWITEFGKAVRTENWRPLFVKTETIIAGNAATALVALVFSILTGSALGIIGYGLLMAVTGALIDESLVEKANKFWGIYINCDFLL
modifications: Colicin attached to Pheromone peptide encoding Staphylococcus aureus AgrDIII
inhibition of growth [2]: some inhibition effects

B3: Ph-SE: Colicin Ia linked to the pheromone of S. epidermidis (protein)
chain: SDPVARGITNPGAESLGYDSDGHEIMAVASPIYVASNPPRVASPVFHGTPPAWSSFGNKTIWGGNEWVASPDSPTRSDIEKRDKEITAYKNTLSAQQKENENKRTEAGKRLSAAIAAREKDENTLKTLRAGNADAADITRQEFRLLQAELREYGFRTEIAGYDALRLHTESRMLFADADSLRISPREARSLIEQAEKRQKDAQNADKKAADMLAEYERRKGILDTRLSELEKNGGAALAVLDAQQARLLGQQTRNDRAISEARNKLSSVTESLNTARNALTRAEQQLTQQKNTPDGKTIVSPEKFPGRSSTNHSIVVSGDPRFAGTIKITTSAVIDNRANLNYLLSHSGLDYKRNILNDRNPVVTEDVEGDKKIYNAEVALAEWDKLRQRLLDARNKITSAESAVASNSARNNLSARTNEQKHANDALNALLKEKENIRNQLSGINQKIAEEKRKQDELKATKDAINFTTEFLKSVSEKYGAKAEQLAREMAGQAKGKKIRNVEEALKTYEKYRADINKKINAKDRAAIAAALESVKLSDISSNLNRFSRGLGYAGKFTSLADWITEFGKAVARGTENWRPLFVKTETIIAGNAATALVALALVFSILTGSALGIIGYGLLMAVTGALIDESLVEKANKFWGIDSVCASYF
modifications: Colicin Ia attached to Pheromone peptide from Staphylococcus epidermidis
inhibition of growth [2]: better effects

B4: Ph-SAR1: the AgrDI pheromone of S. aureus linked to the N-terminus of Colicin Ia (protein)
chain: YSTCDFIMSDPVRITNPGAESLGYDSDGHEIMAVDIYVNPPRVDVFHGTPPAWSSFGNKTIWGGNEWVDDSPTRSDIEKRDKEITAYKNTLSAQQKENENKRTEAGKRLSAAIAAREKDENTLKTLRAGNADAADITRQEFRLLQAELREYGFRTEIAGYDALRLHTESRMLFADADSLRISPREARSLIEQAEKRQKDAQNADKKAADMLAEYERRKGILDTRLSELEKNGGAALAVLDAQQARLLGQQTRNDRAISEARNKLSSVTESLNTARNALTRAEQQLTQQKNTPDGKTIVSPEKFPGRSSTNHSIVVSGDPRFAGTIKITTSAVIDNRANLNYLLSHSGLDYKRNILNDRNPVVTEDVEGDKKIYNAEVAEWDKLRQRLLDARNKITSAESAVNSARNNLSARTNEQKHANDALNALLKEKENIRNQLSGINQKIAEEKRKQDELKATKDAINFTTEFLKSVSEKYGAKAEQLAREMAGQAKGKKIRNVEEALKTYEKYRADINKKINAKDRAAIAAALESVKLSDISSNLNRFSRGLGYAGKFTSLADWITEFGKAVRTENWRPLFVKTETIIAGNAATALVALVFSILTGSALGIIGYGLLMAVTGALIDESLVEKANKFWGI
modifications: Pheromone peptide from Staphylococcus aureus AgrDI attached to Colicin Ia
inhibition of growth [2]: did not inhibit the growth

B5: Ph-SA2: Colicin Ia linked to the AgrDII pheromone of S. aureus (protein)
chain: SDPVRITNPGAESLGYDSDGHEIMAVDIYVNPPRVDVFHGTPPAWSSFGNKTIWGGNEWVDDSPTRSDIEKRDKEITAYKNTLSAQQKENENKRTEAGKRLSAAIAAREKDENTLKTLRAGNADAADITRQEFRLLQAELREYGFRTEIAGYDALRLHTESRMLFADADSLRISPREARSLIEQAEKRQKDAQNADKKAADMLAEYERRKGILDTRLSELEKNGGAALAVLDAQQARLLGQQTRNDRAISEARNKLSSVTESLNTARNALTRAEQQLTQQKNTPDGKTIVSPEKFPGRSSTNHSIVVSGDPRFAGTIKITTSAVIDNRANLNYLLSHSGLDYKRNILNDRNPVVTEDVEGDKKIYNAEVAEWDKLRQRLLDARNKITSAESAVNSARNNLSARTNEQKHANDALNALLKEKENIRNQLSGINQKIAEEKRKQDELKATKDAINFTTEFLKSVSEKYGAKAEQLAREMAGQAKGKKIRNVEEALKTYEKYRADINKKINAKDRAAIAAALESVKLSDISSNLNRFSRGLGYAGKFTSLADWITEFGKAVRTENWRPLFVKTETIIAGNAATALVALVFSILTGSALGIIGYGLLMAVTGALIDESLVEKANKFWGIGVNACSSLF
modifications: Colicin attached to Pheromone peptide encoding Staphylococcus aureus AgrDII
inhibition of growth [2]: some inhibition effects

Source: patent publication US20050153872A1, “Methods and compositions for the treatment of infection” (priority 2004, published 2005)
